Laboratory results from patent US20250270507A1, “METHODS FOR PRODUCING CARTILAGE AND BONES” (Murdoch Children's Research Institute, priority 2021, published 2025).

Assays:
[1] = system: iPSC-derived chondronoids (MCRIi019-A and MCRIi018-B); assay: Chondronoid maturation to hypertrophy with T3; assay type: cell-based, human
Procedure: Triiodothyronine (T3) is crucial for chondrocyte hypertrophy (Aghajanian et al., 2017) thus in some experiments differentiated chondrocytes were treated with 10 nM T3 (Sigma-Aldrich) for 10-21 days to induce chondrocyte hypertrophy. From day 20 (after 2 weeks of FGF2 treatment), differentiation/maturation continued in APEL2/5% PFHM (without FGF2) with medium replaced every 2-3 days. T3 was added when the pellets had consistent and even cartilage histology, which ranged between 4 and 6 weeks post-sclerotome chondrocyte differentiation. In some experiments, pellets were briefly treated with 0.25% trypsin/EDTA for 4 min at 37° C. with agitation to remove the small amount of non-cartilage tissue that occasionally remained on the surface of the chondrocyte pellets. These were allowed to recover in chondrocyte medium (APEL2/5% PFHM) for 1 week before analysis and/or T3 treatment and continued maturation.
(§1) Cultured and in vivo grafted pellet organoids were fixed overnight at 4° C. in Confix (Australian Biostain) neutral-buffered formalin, then […] washed in 70% ethanol, and paraffin-embedded. After fixing, some in vivo grafted pellets were washed in water for 10 minutes then decalcified in 14% EDTA, pH 7.4 at 4° C. for 5 days before embedding. Serial 5 μm sections cut from the pellet centers were mounted on Superfrost Plus slides (Menzel-Gläser) and heated at 55° C. overnight. Sections were treated with xylene to remove the paraffin wax and an ethanol series comprising 100%, 90%, 70%, 50% ethanol then water to rehydrate the sections. Sections were stained with toluidine blue to detect a cartilage proteoglycan matrix or safranin O/fast green for cartilage and bone following standard protocols. Osteogenic pellet sections were also stained with von Kossa to detect mineralization. Images were captured using a Leica DM 2000 LED microscope with Leica Application Suite (LAS) software version 4.9.0 or Zeiss Axio Imager Z2 with Zen 3.1 Blue Edition software.
Formalin fixed and paraffin-embedded sections were immunostained for collagen II (MAB8887; Sigma-Aldrich; 1:150 dilution), collagen I (LF68; Kerafast ENH018-FP; 1:100), collagen X (Cameron et al., 2015) (1:100), PRG4 (clone 9G3; Merck) (1:100) and Ku80 (Cell Signaling) (1:300). For collagen II staining, antigen retrieval used 2 mg/ml porcine pepsin (Sigma) freshly prepared in 1 M Tris/HCl, pH 2.0 for 30 minutes at 37° C., followed by digestion for 30 minutes at 37° C. with 0.2% hyaluronidase (Sigma-Aldrich) in PBS. Collagen X antigen retrieval involved heating to 60° C. in 10 mM Tris/1 mM EDTA/0.05% Tween-20, pH 9.0 (Tris/EDTA) for 30 min, cooling to room temperature for 30 minutes, followed by hyaluronidase digestion and collagen I and Ku80 staining followed antigen retrieval at 60° C. in Tris/EDTA as above. Sections to be stained with Ku80 were then permeabilized with 0.05% Triton X-100. Sections were blocked with 3% BSA in PBS for 1 hour at room temperature, then incubated with primary antibodies in 1% BSA in PBS for 16 hours at 4° C. Appropriate species specific Alexa Fluor 488 and 594 secondary antibodies (ThermoFisher) were diluted 1:200 in 1% BSA in PBS with 2.5 μg/ml DAPI, and sections incubated for 1 hour at room temperature. Slides were washed with PBS and coverslips mounted using Shandon Immumount (ThermoFisher). Images were captured as described above. For collagen X intracellular colocalization studies sections were treated with 0.2% hyaluronidase at 37° C. for 30 minutes then permeabilized with 0.05% Triton X-100. The collagen X antibody was used at 1:100, 58K (PA1-9000; ThermoFisher) at 1:50, GRP94 (PA5-18534; ThermoFisher) 1:200 and LAMP2 (ab25631; Abcam) 1:50. Images were captured on a Zeiss LSM900 Airyscan 2 confocal microscope with Zen 3.1 Blue Edition software. […]

MCRIi001-A-2 organoids = assay: Osteogenic differentiation conditions in a second iPSC line; assay type: cell-based, human; settings: 10 nM T3 for 14 days before osteogenic culture; both osteogenic conditions
Procedure: Hypertrophic chondrocytes can transdifferentiate into osteoblasts and osteocytes in vivo (Yang et al., 2014; Zhou et al., 2014). To recapitulate this later stage of endochondral bone formation in vitro, hypertrophic chondrocyte pellets in orbital culture were rinsed in PBS then cultured in DMEM, high glucose, GlutaMAX Supplement, pyruvate (ThermoFisher), 20% FBS (ThermoFisher), 10 mM β-glycerophosphate, 50 μg/ml ascorbic acid 2-phosphate, 50 μg/ml sodium ascorbate, 100 nM dexamethasone (osteogenic differentiation media) for up to three weeks. […] Media was replaced every 2-3 days.
as §1, with “Osteogenic pellet sections were also stained with von Kossa to detect mineralization. Images were captured using a Leica DM 2000 LED microscope with Leica Application Suite (LAS) software version 4.9.0 or Zeiss Axio Imager Z2 with Zen 3.1 Blue Edition software.” left out

[2] = T3 from day 48 to day 69, RNAseq

N[C@@H](Cc1cc(I)c(Oc2ccc(O)c(I)c2)c(I)c1)C(=O)O [T3, Triiodothyronine]
spontaneous maturation to hypertrophic chondrocytes ([1]; T3 from day 48 to day 69): enhanced
expression of canonical cartilage genes (COL2A1, COL9A1, COL11A1, SOX9, SOX6, SOX5) [1, 2]: downregulated
expression of late hypertrophic cartilage markers (VEGFA, DMP1, HIF1A, MMP13, ALPL) [1, 2]: enhanced expression
expression of ALPL, FOSL2, VEGFA, BMP7 and DMP1 ([1]; compared with spontaneous hypertrophy): only upregulated after stimulation
chondronoid appearance by histology and immunostaining ([1]; day 69): appeared similar with and without T3
expression of sentinel cartilage genes (COL11A1, COL9A1, COL9A2, COL9A3, EPYC, MATN1, LUM, COMP, EDIL3) ([1]; day 69+T3, core matrisome RNAseq): downregulated
von Kossa staining in organoids pre-treated v not pre-treated (MCRIi001-A-2 organoids): more extensive and more intense von Kossa staining
